Experimental data published in PubChem BioAssay (NCI).
Where “and” joins values, the source holds several entries; their conditions need not be identical. Equal entries are not always repeated.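 Exposure lasted 48 hours, with cells grown in 96-well plates and compounds tested at five concentrations. GI50 is the concentration that inhibits growth by half. TGI: concentration producing complete growth inhibition.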

Assays:
Test in all cases: growth of human tumour cells (NCI), 48 h
[1] = tested on: 786-0 renal
[2] = tested on: A498 renal
[3] = tested on: BT-549 breast
[4] = tested on: COLO 205 colon
[5] = tested on: HT29 colon
[6] = tested on: IGROV1 ovarian
[7] = tested on: M14 melanoma
[8] = tested on: MDA-MB-435
[9] = tested on: MDA-N
[10] = tested on: OVCAR-8 ovarian
[11] = tested on: RPMI-8226 leukemia
[12] = tested on: SK-MEL-2 melanoma
[13] = tested on: SK-MEL-5 melanoma
[14] = tested on: SK-OV-3 ovarian
[15] = tested on: SNB-75 CNS
[16] = tested on: U251 CNS
[17] = tested on: UO-31 renal

Structure (SMILES)	TGI [1]	TGI [2]	GI50 [3]	TGI [3]	TGI [4]	TGI [5]	TGI [6]	TGI [7]	TGI [8]	TGI [9]	TGI [10]	TGI [11]	GI50 [12]	TGI [12]	TGI [13]	TGI [14]	GI50 [15]	TGI [15]	TGI [16]	TGI [17]
CN(C)CCOC1(Cc2ccc(F)cc2)CCC(C(C)(C)C)CC1 (stereo not given)	15.9 µM and 11.7 µM	26 µM and 29.3 µM	3.29 µM and 8.02 µM	13.3 µM and 20.9 µM	4.7 µM and 5.66 µM	9.5 µM and 8.3 µM	23.8 µM and 24.3 µM	3.27 µM and 3.93 µM	15 µM and 12.3 µM	17.3 µM and 10.5 µM	25.1 µM and 26.9 µM	5.09 µM and 7.79 µM	10.8 µM and 2.78 µM	24.4 µM and 8.73 µM	3.42 µM and 5.03 µM	27.7 µM and 28.7 µM	4.03 µM and 8.49 µM	17.2 µM and 16.5 µM	17.3 µM and 19.2 µM	19.2 µM and 18.2 µM
CC(C)(C)OC(=O)NCCCNC1(c2cc3ccccc3s2)CCCCC1	28.8 µM	29.8 µM		27 µM	27.8 µM	13.4 µM	32.2 µM	25 µM	28.7 µM	28.8 µM	35.1 µM	13.7 µM		37.6 µM	27.3 µM	26.2 µM		30.2 µM	74.8 µM	25.4 µM
Cc1cc(NCc2ccccc2)c2ccccc2[n+]1CCCCCCCCCC[n+]1c(C)cc(NCc2ccccc2)c2ccccc21	2.44 µM	14.5 µM		1.98 µM	0.665 µM	1.63 µM	> 100 µM	3.22 µM	1.65 µM	1.4 µM	6.71 µM	1.44 µM		2.08 µM	0.638 µM	6.85 µM		1.94 µM	0.795 µM	7.15 µM
On1c(-c2ccccc2)nc2ccccc2c1=S	> 100 µM	> 100 µM		> 100 µM	> 100 µM	> 100 µM	> 100 µM	> 100 µM	> 100 µM	> 100 µM	> 100 µM	> 100 µM		42.8 µM	> 100 µM	> 100 µM		> 100 µM	> 100 µM	> 100 µM
Nc1ccc(S(=O)(=O)Nc2nccs2)cc1	> 100 µM	> 100 µM		> 100 µM	> 100 µM	> 100 µM	> 100 µM	> 100 µM	> 100 µM	> 100 µM	> 100 µM	> 100 µM		> 100 µM	> 100 µM	> 100 µM		> 100 µM	> 100 µM	> 100 µM
NC(CCC(=O)NC(CSCC1C(=O)Nc2ccccc21)C(=O)NCC(=O)O)C(=O)O (stereo not given)	8.55 µM	33.1 µM		15.9 µM	10.5 µM	14.7 µM	13 µM	10.8 µM	14.8 µM	16.7 µM	13.4 µM	6.52 µM		25.4 µM	> 44.8 µM	> 49.4 µM		8.2 µM	18.3 µM	1.74 µM
